Starred links: 1 amine or outer side, 2 acyl side, 3 side chain; linkers in the order of their positions; H or OH if unused. Non-standard residues stand in square brackets, D forms with d. Residues, ends and D or L forms follow the SMILES beside them. Groups on a side chain read outwards from the residue. *: point of attachment. C16 diacid = O=C(O)CCCCCCCCCCCCCCC(=O)*; γGlu = O=C(O)[C@H](CCC(=O)[*:2])N[*:1]; AEEA = NCCOCCOCC(=O)O; Aib = CC(C)(N)C(=O)O
Columns and labels:
human CRF2α receptor = target: T1, human CRF2α receptor (Homo sapiens, UniProt Q13324); test: cAMP agonism at human CRF2α receptor in TeloHEAC cells, FA modified peptides (Example 19.9); type: cell-based; conditions: 0% HSA, relative to urocortin 2
T1 construct: expressed in transfected cells; host or cells: TeloHEAC
T1 sequence (Q13324 1-411): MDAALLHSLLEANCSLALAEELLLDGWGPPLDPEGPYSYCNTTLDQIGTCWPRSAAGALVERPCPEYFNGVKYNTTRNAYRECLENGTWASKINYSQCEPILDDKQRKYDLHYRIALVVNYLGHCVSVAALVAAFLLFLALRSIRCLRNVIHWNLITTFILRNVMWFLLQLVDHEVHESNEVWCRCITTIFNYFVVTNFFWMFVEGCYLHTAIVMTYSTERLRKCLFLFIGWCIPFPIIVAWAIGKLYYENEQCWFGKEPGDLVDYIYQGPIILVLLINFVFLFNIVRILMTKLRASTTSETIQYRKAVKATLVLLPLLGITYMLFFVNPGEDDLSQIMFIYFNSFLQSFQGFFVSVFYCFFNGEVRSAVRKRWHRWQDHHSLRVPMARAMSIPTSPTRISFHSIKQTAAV
Protocol: Agonism of compounds for human corticotropin-releasing factor 2α (CRF2α receptor) was determined by a functional assay measuring cAMP modulation upon treatment of TeloHEAC cells stably expressing human CRF2α receptor.
Compounds were dissolved at 0.5 mM in 100% DMSO and serially diluted (1:2) in 100% DMSO for 16 dilutions. 20 nL of each dilution was then transferred to 384-well assay plate using an acoustic droplet ejection instrument. 5 μL of compound buffer (1×HBSS; 20 mM HEPES, 2 mM IBMX, 0% or 0.2% HSA) were then added to each well.
Prior to use, frozen cells were thawed quickly at 37° C. and washed (5 min at 900 rpm) with 20 mL cell buffer (1×HBSS; 20 mM HEPES). Cells were resuspended in cell buffer and adjusted to a cell density of 800.000 cells/ml.
5 μL cells (final dell density: 4000 cells/well) were dispensed in the compound-containing 384-well assay plate and incubated for 30 minutes 37° C.
The CAMP level in treated cells was determined using the Cisbio 62AM4PEC kit according to manufacturer's instruction. Finally, plates were incubated for 1 h at room temperature before measuring the fluorescence ratio between 665/620 nm.
The percent activity value (E %) was calculated by setting 100 nM of urocortin 2 (UCN2) as 100%. The in vitro potency of the compounds was quantified by determining the concentrations that caused 50% activation of maximal response (EC50) relative to urocortin 2.

CRF1R receptor = target: T2, CRF1R receptor (Homo sapiens, UniProt P34998); test: cAMP activity at anti-target CRF1R, CHO-K1 cell line clone 2 (Example 19.10); type: cell-based; conditions: CRF1R CHO-K1 clone 2; for EC50: 0% HSA, read-out: EC50 [nM] 0% HSA; for Emax: 100% = Sauvagine at 100 nM
T2 construct: host or cells: CHO-K1 clone 2
T2 sequence (P34998 24-415): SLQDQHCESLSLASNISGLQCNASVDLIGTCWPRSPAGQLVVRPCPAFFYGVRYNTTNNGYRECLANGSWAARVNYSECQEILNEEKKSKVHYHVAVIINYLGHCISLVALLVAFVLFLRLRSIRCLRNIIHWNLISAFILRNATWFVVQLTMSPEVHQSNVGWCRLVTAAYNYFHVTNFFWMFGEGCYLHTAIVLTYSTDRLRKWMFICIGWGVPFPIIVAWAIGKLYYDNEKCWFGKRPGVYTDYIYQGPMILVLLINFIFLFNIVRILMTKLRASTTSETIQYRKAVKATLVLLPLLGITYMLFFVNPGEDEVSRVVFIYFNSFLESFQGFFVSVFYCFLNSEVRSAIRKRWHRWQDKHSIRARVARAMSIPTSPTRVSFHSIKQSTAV
In short: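 The cAMP read-out used the same protocol as the previous assay, except that Sauvagine at 100 nM set the 100% activation control. Cells were CHO-K1 clone 2 overexpressing CRF1R, cultured in F12 medium with 10% FBS and G418 and stored frozen until use.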

EC50 (human CRF2α receptor)	EC50 (CRF1R receptor)	Emax (CRF1R receptor)	Structure (SMILES)
0.49 nM	> 100 nM	1.4%	CC[C@H](C)[C@H](N)C(=O)N[C@H](C(=O)N[C@@H](CC(C)C)C(=O)N[C@@H](CO)C(=O)N[C@@H](CC(C)C)C(=O)N[C@@H](CC(=O)O)C(=O)N[C@@H](C(=O)N1CCC[C@H]1C(=O)N[C@H](C(=O)N[C@@H](CCCCN)C(=O)N[C@@H](CC(C)C)C(=O)N[C@@H](CCCCNC(=O)COCCOCCNC(=O)COCCOCCNC(=O)CC[C@H](NC(=O)CCCCCCCCCCCCCCC(=O)O)C(=O)O)C(=O)N[C@@H](CCC(N)=O)C(=O)N[C@H](C(=O)N[C@@H](CC(C)C)C(=O)N[C@@H](CC(C)C)C(=O)N[C@@H](CCCCN)C(=O)N[C@@H](CCC(N)=O)C(=O)N[C@@H](CCC(=O)O)C(=O)N[C@@H](CCCNC(=N)N)C(=O)N[C@@H](CCC(N)=O)C(=O)N[C@@H](CCCCN)C(=O)NC(C)(C)C(=O)N[C@@H](CCC(N)=O)C(=O)N[C@@H](CCCNC(=N)N)C(=O)N[C@@H](CCC(=O)O)C(=O)N[C@@H](CCC(N)=O)C(=O)N[C@@H](C)C(=O)N[C@@H](CCC(=O)O)C(=O)N[C@@H](CCCCN)C(=O)N[C@@H](CC(N)=O)C(=O)N[C@@H](CCCCN)C(=O)N[C@@H](CCC(N)=O)C(=O)N[C@H](C(=O)N[C@@H](CC(C)C)C(=O)N[C@@H](C)C(=O)N[C@@H](CCC(N)=O)C(=O)N[C@H](C(N)=O)C(C)C)[C@@H](C)CC)[C@@H](C)CC)[C@@H](C)CC)C(C)C)C(C)C [compound 198] (H-IVLSLD[dV]PIKLK([AEEA-AEEA-γGlu-C16 diacid])QILLKQERQK[Aib]QREQAEKNKQILAQV-NH2; N-terminus assumed)
1.39 nM	> 100 nM	-2.9%	CC[C@H](C)[C@H](N)C(=O)N[C@H](C(=O)N[C@@H](CC(C)C)C(=O)N[C@@H](CO)C(=O)N[C@@H](CC(C)C)C(=O)N[C@@H](CC(=O)O)C(=O)N[C@@H](C(=O)N1CCC[C@H]1C(=O)N[C@H](C(=O)N[C@@H](CCCCN)C(=O)N[C@@H](CC(C)C)C(=O)N[C@@H](CCCCNC(=O)COCCOCCNC(=O)COCCOCCNC(=O)CC[C@H](NC(=O)CC[C@H](NC(=O)CCCCCCCCCCCCCCC(=O)O)C(=O)O)C(=O)O)C(=O)N[C@@H](CCC(N)=O)C(=O)N[C@H](C(=O)N[C@@H](CC(C)C)C(=O)N[C@@H](CC(C)C)C(=O)N[C@@H](CCCCN)C(=O)N[C@@H](CCC(N)=O)C(=O)N[C@@H](CCC(=O)O)C(=O)N[C@@H](CCCNC(=N)N)C(=O)N[C@@H](CCC(N)=O)C(=O)N[C@@H](CCCCN)C(=O)NC(C)(C)C(=O)N[C@@H](CCC(N)=O)C(=O)N[C@@H](CCCNC(=N)N)C(=O)N[C@@H](CCC(=O)O)C(=O)N[C@@H](CCC(N)=O)C(=O)N[C@@H](C)C(=O)N[C@@H](CCC(=O)O)C(=O)N[C@@H](CCCCN)C(=O)N[C@@H](CC(N)=O)C(=O)N[C@@H](CCCCN)C(=O)N[C@@H](CCC(N)=O)C(=O)N[C@H](C(=O)N[C@@H](CC(C)C)C(=O)N[C@@H](C)C(=O)N[C@@H](CCC(N)=O)C(=O)N[C@H](C(N)=O)C(C)C)[C@@H](C)CC)[C@@H](C)CC)[C@@H](C)CC)C(C)C)C(C)C [compound 199] (H-IVLSLD[dV]PIKLK([AEEA-AEEA-γGlu-γGlu-C16 diacid])QILLKQERQK[Aib]QREQAEKNKQILAQV-NH2; N-terminus assumed)
